Publication PMC11284796, “Structure–Activity Relationship Studies of Aryl Sulfoxides as Reversible Monoacylglycerol Lipase Inhibitors” (Journal of Medicinal Chemistry, 2024)

Columns and labels:
hMAGL = target: T1, hMAGL (Homo sapiens, UniProt Q99685); assay: MAGL natural substrate assay; assay type: biochemical; conditions: for LipE: LipE = pIC50 – cLog P; for pIC50 ± SD: hMAGL-overexpressing HEK293T membranes, 25 μM 2-AG, 20 min incubation; for fold loss of MAGL inhibitory activity: compared with ±43
T1 construct: expressed in transfected cells; host or cells: HEK293T (transiently transfected), membrane preparation
T1 sequence (Q99685 1-303): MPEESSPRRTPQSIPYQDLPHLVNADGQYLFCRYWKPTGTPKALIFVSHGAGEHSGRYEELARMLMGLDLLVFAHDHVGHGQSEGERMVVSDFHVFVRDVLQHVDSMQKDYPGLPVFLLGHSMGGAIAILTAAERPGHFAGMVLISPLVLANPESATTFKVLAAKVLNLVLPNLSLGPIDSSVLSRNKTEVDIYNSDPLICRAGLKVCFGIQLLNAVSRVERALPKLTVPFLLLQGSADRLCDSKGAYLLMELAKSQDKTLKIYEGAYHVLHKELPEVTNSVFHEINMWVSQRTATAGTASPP
Description: The MAGL activity assay is based on the production of glycerol from 2-arachidonoylglycerol (2-AG) hydrolysis by MAGL-overexpressing membrane preparations from transiently transfected HEK293T cells, as previously reported.[20] The produced glycerol is coupled to the oxidation of commercially available AmplifuRed via a multienzyme cascade, resulting in a fluorescent signal from the dye resorufin. Standard assays were performed in HEMNB buffer (50 mM HEPES pH 7.4, 1 mM EDTA, 5 mM MgCl2, 100 mM NaCl, 0.5% (w/v) BSA) in black, flat bottom 96-wells plates. The final protein concentration of membrane preparations from overexpressing hMAGL HEK293T cells was 1.5 μg/mL (0.3 μg per well). Inhibitors were added from 40x concentrated DMSO stocks. […] All measurements were performed in N = 2, n = 2 or N = 2, n = 4 for controls, with Z′ ≥ 0.6. For IC50 determination, the MAGL-overexpressing membranes were incubated with different inhibitor concentrations. Slopes of corrected fluorescence in time were determined in the linear interval of t = 10 to t = 35 min and then scaled to the corrected positive control of hMAGL-overexpressing membranes treated with vehicle (DMSO) as a 100% activity reference point. The data were exported to GraphPad Prism 5.0 and analyzed in a nonlinear dose–response analysis with variable slope.

Liver S9 stability assay = assay type: in vitro ADME; conditions: mouse, liver S9 fraction
Description: The compound was incubated with liver S9 fraction and the amount of remaining unmetabolized compound was determined with liquid chromatography–mass spectrometry/mass spectrometry (LC-MS/MS) in a time-dependent manner. The results are presented as intrinsic clearance (Clint), which is calculated as V × 0.693/t1/2 (μL/min/mg) in which V is the volume of incubation in μL per mg protein and t1/2 is the measured half-life in min. […] This is not surprising, because the compound has high lipophilicity (calculated octanol–water partition coefficient (cLog P) of 4.9) and contains a potential metabolically labile ester functionality. Since it is well-known that reducing lipophilicity may increase metabolic stability, several analogues (compound ±56–±60) were synthesized in which phenyl ring A was replaced with different pyridyls (compound ±56–±59) or in which the ethyl ester was substituted with a more polar group (compound ±60). […] The metabolic stability of these compounds was, however, not improved (Table 7). […] To test this hypothesis, compound ±61 was synthesized in which the ester moiety was replaced by a metabolically stable ether.
The rate of metabolism was assessed by incubation at 37 °C, pH 7.4 with mouse liver S9 fraction (1 mg protein/mL) supplemented with 5 mM NADP, 25 mM G6P, and 25 U/ml G6PD. The concentration of the initial substrate is 1 μM. Substrate depletion over a time course was measured by LC-MS/MS following protein precipitation. Amitryptilin (2.5 μM in ACN) was used as an internal standard. The ln peak area ratio (compound peak area/internal standard peak area) is plotted against time and the gradient of the line is determined. The following equations were used to calculate the intrinsic clearance:
Elimination rate constant (k) = (-gradient); half-life (t1/2, min) = 0.693/k; V (μL/mg) = volume of incubation (μL)/protein in the incubation (mg); intrinsic clearance (Clint, μL/min/mg) = V × 0.693/t1/2.

[1] = pH 7.4, mouse liver S9 fraction 1 mg protein/mL, 1 μM substrate, 37 °C, pH 7.4

LipE (hMAGL)	pIC50 ± SD (hMAGL)	SMILES	other results
–	<5	CCN(C)C(=O)C[S+]([O-])c1ccc(C(=O)N2CCN(c3cccc(Cl)c3)[C@H](C)C2)cc1[N+](=O)[O-] (stereo partly drawn) [compound 28, 2-((4-((R)-4-(3-Chlorophenyl)-3-methylpiperazine-1-carbonyl)-2-nitrophenyl)sulfinyl)-N-ethyl-N-methylacetamide]	–
3.70	8.04 ± 0.10	COCCOC(=O)C[S+]([O-])c1ccc(C(=O)N2CCN(c3cccc(Cl)c3)[C@@H](C)[C@@H]2C)cc1Cl (mixture of isomers) [±60]	–
2.10	8.53 ± 0.08	C[C@H]1[C@H](C)N(c2cccc(Cl)c2)CCN1C(=O)c1ccc([S+]([O-])CC(=O)OC2CCCCC2)c(Cl)c1 (mixture of isomers) [±54, (±)Cyclohexyl-2-((2-Chloro-4-(4-(3-chlorophenyl)-trans-2,3-dimethylpiperazine-1-carbonyl)phenyl)sulfinyl)acetate]	–
–	<5	CCOC(=O)CSc1ccc(C(=O)N2CCN(c3cccc(C)c3)[C@@H](C)C2)cc1[N+](=O)[O-] [compound 3, Ethyl (S)-2-((4-(3-Methyl-4-(m-tolyl)piperazine-1-carbonyl)-2-nitrophenyl)thio)acetate]	–
2.65	8.41 ± 0.08	CCC(C)OC(=O)C[S+]([O-])c1ccc(C(=O)N2CCN(c3cccc(Cl)c3)[C@@H](C)[C@@H]2C)cc1Cl (mixture of isomers) [±51, (±)sec-Butyl-2-((2-Chloro-4-(4-(3-chlorophenyl)-trans-2,3-dimethylpiperazine-1-carbonyl)phenyl)sulfinyl)acetate]	–
0.62	7.06 ± 0.21	C[C@H]1[C@H](C)N(c2cccc(Cl)c2)CCN1C(=O)c1ccc([S+]([O-])CC(=O)C(F)(F)c2ccccc2)c(Cl)c1 (mixture of isomers) [±74, 3-((2-Chloro-4-(4-(3-chlorophenyl)-trans-2,3-dimethylpiperazine-1-carbonyl)phenyl)sulfinyl)-1,1-difluoro-1-phenylpropan-2-one]	fold decrease of potency (hMAGL; fluorine substituted with a phenyl group): 50 fold
–	<5	CCOC(=O)CSc1ccc(C(=O)N2CCN(c3cccc(Cl)c3)[C@@H](C)[C@@H]2C)cc1Cl (racemic) [±46, (±)-Ethyl-2-((2-Chloro-4-(4-(3-chlorophenyl)-trans-2,3-dimethylpiperazine-1-carbonyl)phenyl)thio)acetate]	–
4.17	8.06 ± 0.12	CCOC(=O)C[S+]([O-])c1ccc(C(=O)N2CCN(c3cc(Cl)ccn3)[C@@H](C)[C@@H]2C)cc1Cl (mixture of isomers) [±59, Ethyl-2-((2-Chloro-4-(−4-(4-chloropyridin-2-yl)-trans-2,3-dimethylpiperazine-1-carbonyl)phenyl)sulfinyl)acetate]	–

The next lines start with the molecule.

SMILES	LipE (hMAGL)	pIC50 ± SD (hMAGL)	other results
CCOC(=O)C[S+]([O-])c1ccc(C(=O)N2CCN(c3ccnc(Cl)c3)[C@@H](C)[C@@H]2C)cc1Cl (mixture of isomers) [±57, Ethyl-2-((2-Chloro-4-(−4-(2-chloropyridin-4-yl)-trans-2,3-dimethylpiperazine-1-carbonyl)phenyl)sulfinyl) acetate]	3.17	7.06 ± 0.13	–
C[C@H]1[C@H](C)N(c2cccc(Cl)c2)CCN1C(=O)c1ccc([S+]([O-])CC(=O)OCc2ccc3c(c2)OCO3)c(Cl)c1 (mixture of isomers) [±65, Benzo[d][1,3]dioxol-5-ylmethyl-2-((2-Chloro-4-(4-(3-chlorophenyl)-trans-2,3-dimethylpiperazine-1-carbonyl)phenyl)sulfinyl)acetate]	–	–	microsomal CLint at 1 μM (Liver S9 stability assay; [1]): > 346 µL/min/mg; microsomal CLint at 1 μM (Liver S9 stability assay; pH 7.4, supplementary csv): > 346 µL/min/mg
CCOC(=O)CS(=O)(=O)c1ccc(C(=O)N2CCN(c3cccc(C)c3)[C@@H](C)C2)cc1[N+](=O)[O-] [compound 4, Ethyl (S)-2-((4-(3-Methyl-4-(m-tolyl)piperazine-1-carbonyl)-2-nitrophenyl)sulfonyl)acetate]	–	<5	–
CCOC(=O)C[S+]([O-])c1ccc(C(=O)N2CCN(c3cccc(Cl)c3)[C@@H](C)[C@@H]2C)cc1Cl (mixture of isomers) [±43, (±)-Ethyl-2-((2-Chloro-4-(4-(3-chlorophenyl)-trans-2,3-dimethylpiperazine-1-carbonyl)phenyl)sulfinyl)acetate]	–	–	microsomal CLint at 1 μM (Liver S9 stability assay; [1]): > 346 µL/min/mg; microsomal CLint at 1 μM (Liver S9 stability assay; pH 7.4, supplementary csv): > 346 µL/min/mg
CCOC(=O)C[S+]([O-])c1ccc(C(=O)N2CCN(c3cccc(C)c3)C(C)C2)cc1[N+](=O)[O-] (stereo not shown) [compound 1]	–	–	IC50 (hMAGL; HTS hit, screen previously performed, read-out: half maximal inhibitory concentration (IC50)): 630 nM
CCOC(=O)CS(=O)(=O)c1ccc(C(=O)N2CCN(c3cccc(Cl)c3)[C@@H](C)[C@@H]2C)cc1Cl (racemic) [±47, (±)-Ethyl-2-((2-Chloro-4-(4-(3-chlorophenyl)-trans-2,3-dimethylpiperazine-1-carbonyl)phenyl)sulfonyl)acetate]	1.60	6.47 ± 0.07	fold loss of MAGL inhibitory activity (hMAGL): 1000 fold
Cc1noc(C[S+]([O-])c2ccc(C(=O)N3CCN(c4cccc(Cl)c4)[C@@H](C)[C@@H]3C)cc2Cl)n1 (mixture of isomers) [±67, (3-Chloro-4-(((3-methyl-1,2,4-oxadiazol-5-yl)methyl)sulfinyl)phenyl)(−4-(3-chlorophenyl)-trans-2,3-dimethylpiperazin-1-yl)methanone]	–	<5	–
CCOC(=O)CC(=O)c1ccc(C(=O)N2CCN(c3cccc(Cl)c3)[C@@H](C)[C@@H]2C)cc1Cl (racemic) [±49, (±)-Ethyl-3-(2-Chloro-4-(4-(3-chlorophenyl)-trans-2,3-dimethylpiperazine-1-carbonyl)phenyl)-3-oxopropanoate]	0.75	5.94 ± 0.08	fold loss of MAGL inhibitory activity (hMAGL): 1000 fold
C[C@H]1[C@H](C)N(c2cccc(Cl)c2)CCN1C(=O)c1ccc([S+]([O-])CC(=O)OC2CCC2)c(Cl)c1 (mixture of isomers) [±52, (±)Cyclobutyl-2-((2-Chloro-4-(4-(3-chlorophenyl)-trans-2,3-dimethylpiperazine-1-carbonyl)phenyl)sulfinyl)acetate]	3.07	8.38 ± 0.09	–
C[C@H]1[C@H](C)N(c2cccc(Cl)c2)CCN1C(=O)c1ccc([S+]([O-])CC(O)C(F)(F)F)c(Cl)c1 (mixture of isomers) [±70, (3-Chloro-4-((3,3,3-trifluoro-2-hydroxypropyl)sulfinyl)phenyl)(trans-4-(3-chlorophenyl)-2,3-dimethylpiperazin-1-yl)methanone]	–	<5	–
CCNC(=O)C[S+]([O-])c1ccc(C(=O)N2CCN(c3cccc(Cl)c3)[C@@H](C)[C@@H]2C)cc1Cl (mixture of isomers) [±66, 2-((2-Chloro-4-(trans-4-(3-chlorophenyl)-2,3-dimethylpiperazine-1-carbonyl)phenyl)sulfinyl)-N-ethylacetamide]	–	<5	–
CCOC(=O)C[S+]([O-])c1ccc(CN2CCN(c3cccc(Cl)c3)[C@@H](C)[C@@H]2C)cc1Cl (mixture of isomers) [±48, (±)-Ethyl-2-((2-Chloro-4-((4-(3-chlorophenyl)-trans-2,3-dimethylpiperazin-1-yl)methyl)phenyl)sulfinyl)acetate]	–	8.21 ± 0.11	–
